These are literature values, as cited in patent US20070082912A1, “Pyrrole compounds for the treatment of prostaglandine mediated diseases” (priority 2002, published 2007).

Structures are written as SMILES.

The test system of data set [1] is rat model of chronic constriction injury. The following applies: Anesthesia and Analgesia 2001, 93, 1012-7.
Data set [2] relates to rodent model of post-operative pain. The following applies: Anesthesia and Analgesia 2001, 92, 233-238.

As to `Cc1cc(Cl)ccc1S(=O)(=O)NC[C@H]1C2CCC(CC2)[C@@H]1/C=C\CCCC(=O)O` [ONO-871 1], the hyperalgesia and allodynia entry in data set [1] was “reduces hyperalgesia and allodynia”. For the same compound, the mechanical hyperalgesia entry in data set [2] is given as “inhibits mechanical hyperalgesia”.
